ChEMBL document CHEMBL1127089, “Non-nucleoside inhibitors of HIV-1 reverse transcriptase: molecular modeling and X-ray structure investigations” (J Med Chem, 1993)

Biological target: Human immunodeficiency virus type 1 reverse transcriptase (Human immunodeficiency virus 1, UniProt Q72547)
Assay: In vitro for inhibitory activity against HIV-1 Reverse Transcriptase

Work on `Cc1cccc(C23SCCN2C(=O)c2ccccc23)c1` (stereo unspecified) yielded an IC50 of 30 nM.

For `O=C1c2ccccc2[C@H]2SCCN1c1ccccc12`, the IC50 was 830 nM.

Compound `O=C1c2ccccc2[C@@]23CC=CCC12c1ccccc1C3=O` (stereo partly specified) has an IC50 of 8700 nM.

Compound `O=C1c2ccccc2C2(c3cccc4ccccc34)SCCN12` (stereo unspecified) has an IC50 of 150 nM.

`O=C1c2ccccc2C2(c3ccccc3)SCCN12` (stereo unspecified) gave an IC50 of 280 nM.

`CC(C)=CCN1Cc2cccc3[nH]c(=S)n(c23)C[C@@H]1C` was tested, and the IC50 was 160 nM.
